Test results taken from publication PMC10238386, “Serine ADP-ribosylation in Drosophila provides insights into the evolution of reversible ADP-ribosylation signalling” (Nature Communications, 2023).

Columns and labels:
[1] = target: T1, hPARP1 (Homo sapiens, UniProt P09874, E988Q); assay: […] auto-mono-ADP-ribosylation, SDS-PAGE autoradiography; format: biochemical; conditions: labelled compound (32P-NAD+); 50 µM NAD+, activated DNA, 2 mM MgCl2, pH 8, room temperature; no HPF1
T1 construct: gene PARP1

[2] = target: T2, hPARP1 (Homo sapiens, UniProt P09874); assay: […] auto-ADP-ribosylation (poly-Glu), SDS-PAGE autoradiography; format: biochemical; conditions: labelled compound (32P-NAD+); 50 µM NAD+, activated DNA, 2 mM MgCl2, pH 8, room temperature; no HPF1
T2 construct: gene PARP1
T2 sequence (P09874 2-1014): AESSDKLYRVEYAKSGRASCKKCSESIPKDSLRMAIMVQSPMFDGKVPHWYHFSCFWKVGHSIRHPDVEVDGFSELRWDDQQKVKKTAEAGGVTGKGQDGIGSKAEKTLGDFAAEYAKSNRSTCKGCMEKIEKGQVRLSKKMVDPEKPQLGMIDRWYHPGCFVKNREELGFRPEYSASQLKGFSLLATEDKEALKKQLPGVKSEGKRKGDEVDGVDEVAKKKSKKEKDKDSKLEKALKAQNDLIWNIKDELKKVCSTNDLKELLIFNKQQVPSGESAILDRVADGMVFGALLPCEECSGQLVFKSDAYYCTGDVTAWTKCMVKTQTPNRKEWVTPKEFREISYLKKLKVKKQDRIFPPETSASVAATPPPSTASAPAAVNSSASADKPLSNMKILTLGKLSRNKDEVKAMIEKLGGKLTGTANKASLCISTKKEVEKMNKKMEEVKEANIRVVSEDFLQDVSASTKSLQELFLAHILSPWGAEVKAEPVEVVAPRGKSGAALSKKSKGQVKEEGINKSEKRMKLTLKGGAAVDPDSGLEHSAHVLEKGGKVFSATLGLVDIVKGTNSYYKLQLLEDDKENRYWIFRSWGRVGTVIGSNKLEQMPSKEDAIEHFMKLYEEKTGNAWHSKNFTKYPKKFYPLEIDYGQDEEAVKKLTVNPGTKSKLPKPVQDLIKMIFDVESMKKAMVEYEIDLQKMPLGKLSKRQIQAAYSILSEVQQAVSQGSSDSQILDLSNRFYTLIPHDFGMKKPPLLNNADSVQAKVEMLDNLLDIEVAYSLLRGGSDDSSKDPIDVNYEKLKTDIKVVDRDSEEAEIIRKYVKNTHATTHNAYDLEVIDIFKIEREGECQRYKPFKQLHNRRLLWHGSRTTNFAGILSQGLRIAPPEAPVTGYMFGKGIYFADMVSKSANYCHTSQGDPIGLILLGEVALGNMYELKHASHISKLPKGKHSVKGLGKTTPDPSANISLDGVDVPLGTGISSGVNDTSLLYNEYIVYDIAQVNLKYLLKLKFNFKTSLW

T1 sequence (P09874 2-1014 E988Q): as the sequence (P09874 2-1014) above, with E987Q counted along it

## NC(=O)c1ccc[n+]([C@@H]2O[C@H](COP(=O)(O)OP(=O)(O)OC[C@H]3O[C@@H](n4cnc5c(N)ncnc54)[C@H](O)[C@@H]3O)[C@@H](O)[C@H]2O)c1 [NAD^+]
[1]
  32P auto-mono-ADP-ribosylation, SDS-PAGE autoradiography: we generated the mono-ADPr variants using the hPARP1 E988Q mutant
[2]
  32P auto-ADP-ribosylation (poly-Glu), SDS-PAGE autoradiography: recombinant proteins or peptides were ADP-ribosylated by hPARP1 to produce Glu-ADPr
